Read-outs that look alike come from different tables or passages of the source.
What was measured:
[1] = test system: human SKM-1 acute myeloid leukemia cells; experiment: SKM-1 antiproliferation cell-based assay (ATPlite); settings: Homo sapiens
How it was run: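 Log-phase cells in RPMI 1640/15% FBS were seeded at 34722 cells/mL and exposed for 4 days to nine-concentration DMSO serial dilutions in triplicate. Viability was read as ATP luminescence (ATPlite 1step), and IC50 values came from variable-slope non-linear regression.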

[2] = biological target: T1, human BRD4 bromodomain II (Homo sapiens, UniProt O60885); experiment: Bromodomain binding assay (AlphaScreen), BRD4 BDII
T1 construct: human BRD4 bromodomain II [based on Genbank NM_058243, residues 349-460]; host or cells: E. coli
How it was run: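 Compounds (10-point, 3-fold series) were preincubated 30 min at room temperature with E. coli-expressed N-terminal His6-tagged BRD4 BDII (residues 349-460) or BDI (residues 44-170) in 50 mM HEPES pH 7.5, 100 mM NaCl, 0.05% CHAPS, 0.1% BSA, 1% DMSO. Displacement of biotinylated tetra-acetylated H4 1-21 peptide was read by AlphaScreen; IC50 from curve fitting.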

[3] = SKM-1, 96 h, SKM-1 antiproliferation assay, 4 days, Table C2
[4] = AlphaScreen assay, Table C2, read-out: BRD4 BDII IC50
[5] = SKM-1, SKM-1 antiproliferation assay
[6] = BRD4 BDII AlphaScreen assay, read-out: BRD4 BD2 IC50

Row | SMILES | GI50 [1, 3] [nM] | IC50 [2, 4] [nM] | GI50 [1, 5] [nM] | IC50 [2, 6] [nM]
1 | CN1CCN(c2ccc(-c3cc(F)cc(-c4ccnc(N5CCNc6ccccc65)c4)c3O)cc2Cl)C1=O [Example 483, 1-(3-chloro-3′-(2-(3,4-dihydroquinoxalin-1(2H)-yl)pyridin-4-yl)-5′-fluoro-2′-hydroxy-[1,1′-biphenyl]-4-yl)-3-methylimidazolidin-2-one] | ≥ 3000 | > 100 | – | –
2 | Cc1cc(-c2ccc(-n3ccn(C)c3=O)c(Cl)c2)c(O)c(-c2cc(N3CC[C@H](N)C3)c3nc[nH]c3c2)c1 [Example 564] | 0.3 to 30 | 0.01 to 1 | – | –
3 | Cc1ncc(-c2cc(F)cc(-c3ccc(-n4ccn(C)c4=O)c(Cl)c3)c2O)cc1N1CCN(C(C)(C)C)CC1 [Example 791, 1-(3′-(5-(4-(tert-butyl)piperazin-1-yl)-6-methylpyridin-3-yl)-3-chloro-5′-fluoro-2′-hydroxy-[1,1′-biphenyl]-4-yl)-3-methyl-1,3-dihydro-2H-imidazol-2-one] | 0.3 to 30 | 0.01 to 1 | – | –
4 | Cn1ccn(-c2ccc(-c3cc(F)cc(-c4cccc(-c5ccc(O)cc5)c4)c3O)cc2Cl)c1=O [Example 857] | – | – | 300 to 3000 | 10 to 100
5 | Cn1ccn(-c2ccc(-c3cc(F)cc(-c4ccnc(N5CCNC6(CC6)C5)c4)c3O)cc2Cl)c1=O [Example 559, 1-(3′-(2-(4,7-diazaspiro[2.5]octan-7-yl)pyridin-4-yl)-3-chloro-5′-fluoro-2′-hydroxy-[1,1′-biphenyl]-4-yl)-3-methyl-1H-imidazol-2(3H)-one] | 30 to 300 | 0.01 to 1 | – | –
6 | C[C@@H]1CN(c2cc(-c3cc(F)cc(-c4ccc(-n5ccn(C)c5=O)c(Cl)c4)c3O)cn(C)c2=O)CCN1 [Example 432, (R)-5-(3′-chloro-5-fluoro-2-hydroxy-4′-(3-methyl-2-oxo-2,3-dihydro-1H-imidazol-1-yl)-[1,1′-biphenyl]-3-yl)-1-methyl-3-(3-methylpiperazin-1-yl)pyridin-2(1H)-one] | 0.3 to 30 | 0.01 to 1 | – | –
7 | Cn1ccn(-c2ccc(-c3cc(F)cc(-c4ccnc(N5CC[C@@](C)(N)C5)c4)c3O)cc2Cl)c1=O [Example 716, (R)-1-(3′-(2-(3-amino-3-methylpyrrolidin-1-yl)pyridin-4-yl)-3-chloro-5′-fluoro-2′-hydroxy-[1,1′-biphenyl]-4-yl)-3-methyl-1,3-dihydro-] | 0.3 to 30 | 0.01 to 1 | – | –
8 | Cn1ccn(-c2ccc(-c3cc(F)cc(-c4ccnc(N5CC[C@H](O)C5)c4)c3O)cc2Cl)c1=O [Example 626, (S)-1-(3-chloro-5′-fluoro-2′-hydroxy-3′-(2-(3-hydroxypyrrolidin-1-yl)pyridin-4-yl)-[1,1′-biphenyl]-4-yl)-3-methyl-1H-imidazol-2(3H)-one] | 30 to 300 | 0.01 to 1 | – | –
9 | Cc1cc(-c2cc(F)cc(-c3ccnc(N4CCNCC4)c3)c2O)cc(Cl)c1N1CCCC1=O [Example 386, 1-(3-chloro-5′-fluoro-2′-hydroxy-5-methyl-3′-(2-(piperazin-1-yl)pyridin-4-yl)-[1,1′-biphenyl]-4-yl)pyrrolidin-2-one] | 300 to 3000 | > 100 | – | –
10 | C[C@@H]1CN(c2cc(-c3cc(F)cc(-c4ccc(-n5ccn(C)c5=O)c(F)c4)c3O)ccn2)CCN1 [Example 534, (R)-1-(3,5′-difluoro-2′-hydroxy-3′-(2-(3-methylpiperazin-1-yl)pyridin-4-yl)-[1,1′-biphenyl]-4-yl)-3-methyl-1H-imidazol-2(3H)-one] | 0.3 to 30 | 1 to 10 | – | –
11 | CN1CCN(c2ccc(-c3cc(F)cc(-c4cnc(-c5cn[nH]c5)c(N5CCNCC5)c4)c3O)cc2Cl)C1=O [Example 390, 1-(3-chloro-5′-fluoro-2′-hydroxy-3′-(5-(piperazin-1-yl)-6-(1H-pyrazol-4-yl)pyridin-3-yl)-[1,1′-biphenyl]-4-yl)-3-methylimidazolidin-2-one] | 300 to 3000 | 1 to 10 | – | –
12 | CC(=O)Nc1cc(-c2cc(F)cc(-c3ccc(-n4ccn(C)c4=O)c(Cl)c3)c2O)cc(N2CC[C@H](N)C2)n1 [Example 503, (S)-N-(6-(3-aminopyrrolidin-1-yl)-4-(3′-chloro-5-fluoro-2-hydroxy-4′-(3-methyl-2-oxo-2,3-dihydro-1H-imidazol-1-yl)-[1,1′-biphenyl]-3-yl)pyridin-2-yl)acetamide] | 0.3 to 30 | 1 to 10 | – | –
13 | COc1cc(-c2cc(F)cc(-c3cccc(N4CCN(C(C)(C)C)CC4)c3)c2O)cc(Cl)c1-n1ccn(C)c1=O [Example 910, 1-(3″-(4-(tert-butyl)piperazin-1-yl)-3-chloro-5′-fluoro-2′-hydroxy-5-methoxy-[1,1′:3′,1″-terphenyl]-4-yl)-3-methyl-1H-imidazol-2(3H)-one] | – | – | 30 to 300 | 10 to 100
14 | Cn1ccn(-c2ccc(-c3cc(F)cc(-c4ccnc(N5CCC(C)(O)C5)c4)c3O)cc2Cl)c1=O (centres unmarked) [Example 685, 1-(3-chloro-5′-fluoro-2′-hydroxy-3′-(2-(3-hydroxy-3-methylpyrrolidin-1-yl)pyridin-4-yl)-[1,1′-biphenyl]-4-yl)-3-methyl-1H-imidazol-2(3H)-one] | 0.3 to 30 | 0.01 to 1 | – | –
15 | Cn1ccn(-c2ccc(-c3cc(F)cc(-c4ccnc(N5CCC(C)(N)CC5)c4)c3O)cc2Cl)c1=O [Example 778] | 0.3 to 30 | 1 to 10 | – | –
16 | Cc1ncc(-c2cc(F)cc(-c3ccc(-n4ccn(C)c4=O)c(Cl)c3)c2O)cc1N1CC(C)(C)[C@@](C)(O)C1 [Example 885] | – | – | 30 to 300 | 1 to 10
17 | COCC(C)(C)N1CCN(c2cc(-c3cc(F)cc(-c4ccc(-n5ccn(C)c5=O)c(Cl)c4)c3O)cn(C)c2=O)CC1 [Example 763] | 0.3 to 30 | 1 to 10 | – | –
18 | CC1CC(=O)N(c2ccc(-c3cccc(-c4ccnc(N5CCNCC5)c4)c3O)cc2Cl)C1 (centres unmarked) [Example 340, 1-(3-chloro-2′-hydroxy-3′-(2-(piperazin-1-yl)pyridin-4-yl)-[1,1′-biphenyl]-4-yl)-4-methylpyrrolidin-2-one] | 300 to 3000 | > 100 | – | –
19 | Cn1ccn(-c2ccc(-c3cc(F)cc(-c4ccnc(N5CCN(CCCF)CC5)c4)c3O)cc2Cl)c1=O [Example 527, 1-(3-chloro-5′-fluoro-3′-(2-(4-(3-fluoropropyl)piperazin-1-yl)pyridin-4-yl)-2′-hydroxy-[1,1′-biphenyl]-4-yl)-3-methyl-1H-imidazol-2(3H)-one] | 0.3 to 30 | 0.01 to 1 | – | –
20 | CN1CCCN(c2ccc(-c3cccc(-c4ccnc(N5CCNCC5)c4)c3O)cc2F)C1=O [Example 288, 1-(3-fluoro-2′-hydroxy-3′-(2-(piperazin-1-yl)pyridin-4-yl)-[1,1′-biphenyl]-4-yl)-3-methyltetrahydropyrimidin-2(1H)-one] | ≥ 3000 | > 100 | – | –
21 | C[C@@H]1CN(c2cc(-c3cccc(-c4ccc(N5CCCC5=O)c(Cl)c4)c3O)ccn2)CCN1 [Example 253, (R)-1-(3-chloro-2′-hydroxy-3′-(2-(3-methylpiperazin-1-yl)pyridin-4-yl)-[1,1′-biphenyl]-4-yl)pyrrolidin-2-one] | 300 to 3000 | 1 to 10 | – | –
22 | CC(=O)Nc1ccc(-c2cc(F)cc(-c3ccnc(N4CCNCC4)c3)c2O)cc1F [Example 224, N-(3,5′-difluoro-2′-hydroxy-3′-(2-(piperazin-1-yl)pyridin-4-yl)-[1,1′-biphenyl]-4-yl)acetamide] | 30 to 300 | 1 to 10 | – | –
23 | C[C@H]1CCCN(c2cc(-c3cc(F)cc(-c4ccc(-n5ccn(C)c5=O)c(Cl)c4)c3O)cc3[nH]ncc23)C1 [Example 596, (S)-1-(3-chloro-5′-fluoro-2′-hydroxy-3′-(4-(3-methylpiperidin-1-yl)-1H-indazol-6-yl)-[1,1′-biphenyl]-4-yl)-3-methyl-1H-imidazol-2(3H)-one] | 300 to 3000 | 10 to 100 | – | –
24 | Cc1cc(-c2ccnc(N3CCN[C@H](C)C3)c2)c(O)c(-c2ccc(-n3ccn(C)c3=O)c(Cl)c2)c1 [Example 500, (R)-1-(3-chloro-2′-hydroxy-5′-methyl-3′-(2-(3-methylpiperazin-1-yl)pyridin-4-yl)-[1,1′-biphenyl]-4-yl)-3-methyl-1H-imidazol-2(3H)-one] | 0.3 to 30 | 1 to 10 | – | –
25 | CN(C)c1ncc(-c2cc(F)cc(-c3ccc(-n4ccn(C)c4=O)c(Cl)c3)c2O)cc1N1CCN(C(C)(C)C)CC1 [Example 922, 1-(3′-(5-(4-(tert-Butyl)piperazin-1-yl)-6-(dimethylamino)pyridin-3-yl)-3-chloro-5′-fluoro-2′-hydroxy-[1,1′-biphenyl]-4-yl)-3-methyl-1H-imidazol-2(3H)-one] | – | – | 0.3 to 30 | 0.01 to 1
26 | CC(=O)Nc1ccc(-c2cc(F)cc(-c3cccc(N4CCN(C(C)(C)C)CC4)c3)c2O)nn1 [Example 896] | – | – | 300 to 3000 | > 100
27 | Cn1ccn(-c2ccc(-c3cc(F)cc(-c4cccc(N5CC[C@@](C)(N)C5)c4)c3O)cc2Cl)c1=O [Example 758, (R)-1-(3″-(3-amino-3-methylpyrrolidin-1-yl)-3-chloro-5′-fluoro-2′-hydroxy-[1,1′:3′,1″-terphenyl]-4-yl)-3-methyl-1H-imidazol-2(3H)-one] | 0.3 to 30 | 0.01 to 1 | – | –
28 | O=C1CCC(=O)N1c1ccc(-c2cccc(-c3ccnc(N4CCNCC4)c3)c2O)cc1F [Example 303, 1-(3-fluoro-2′-hydroxy-3′-(2-(piperazin-1-yl)pyridin-4-yl)-[1,1′-biphenyl]-4-yl)pyrrolidine-2,5-dione] | ≥ 3000 | > 100 | – | –

From patent US20250179059A1 (The Regents of the University of California, priority 2021, published 2025)
